Test results: patent publication US20260285850A1, “SUBSTITUTED OXAZOLIDINONES AND IMIDAZOLINONES AS HERBICIDES” (FMC CORPORATION, priority 2023, published 2026)

Legend:
Format in all cases: in vivo
[1] = tested on: ragweed (common ragweed, Ambrosia artemisiifolia); assay: Test A postemergence application, visual injury rating 0-100; details: Postemergence
Outline: (§1)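 Preemergence directed soil spray or postemergence spray (2-10 cm, 1-2 leaf); loam/sand mix; compound in non-phytotoxic solvent + surfactant. Greenhouse, 10 d. Visual injury vs untreated, 0 = none, 100 = complete control.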

[2] = tested on: palmer (palmer amaranth, palmer pigweed, Amaranthus palmeri); assay: as above; details: Postemergence
Outline: as §1

corn (Zea mays) [3] = assay: as above; details: Postemergence
Outline: as §1

[4] = tested on: blackgrass (Alopecurus myosuroides); assay: as above; details: Postemergence
Outline: as §1

[5] = tested on: oat, wild (wild oat, Avena fatua); assay: as above; details: Postemergence
Outline: as §1

[6] = tested on: horseweed (Erigeron canadensis); assay: as above; details: Postemergence
Outline: as §1

[7] = tested on: ryegrass, Italian (italian ryegrass, Lolium multiflorum); assay: as above; details: Postemergence
Outline: as §1

soybean (Glycine max) [8] = assay: as above; details: Postemergence
Outline: as §1

[9] = tested on: wheat (Triticum aestivum); assay: as above; details: Postemergence
Outline: as §1

[10] = tested on: galium (catchweed bedstraw, Galium aparine); assay: as above; details: Postemergence
Outline: as §1

kochia (Bassia scoparia) [11] = assay: as above; details: Postemergence
Outline: as §1

[12] = tested on: barnyardgrass (Echinochloa crus-galli); assay: as above; details: Postemergence
Outline: as §1

[13] = tested on: ragweed (common ragweed, Ambrosia artemisiifolia); assay: Test A preemergence soil spray, visual injury rating 0-100; details: 10 days, 0 = no effect, 100 = complete control; for Ragweed plant response rating (0-100): 31 g ai/ha; for Ragweed plant response rating (0 to 100 scale): 125 g ai/ha
Outline: as §1

[14] = tested on: palmer (palmer amaranth, palmer pigweed, Amaranthus palmeri); assay: as above; details: 10 days, 0 = no effect, 100 = complete control; for Amaranth, Palmer plant response rating (0-100): 31 g ai/ha; for Amaranth, Palmer plant response rating (0 to 100 scale): 125 g ai/ha
Outline: as §1

corn (Zea mays) [15] = assay: as above; details: 10 days, 0 = no effect, 100 = complete control; for Corn plant response rating (0-100): 31 g ai/ha; for Corn plant response rating (0 to 100 scale): 125 g ai/ha
Outline: as §1

[16] = tested on: blackgrass (Alopecurus myosuroides); assay: as above; details: 10 days, 0 = no effect, 100 = complete control; for Blackgrass plant response rating (0-100): 31 g ai/ha; for Blackgrass plant response rating (0 to 100 scale): 125 g ai/ha
Outline: as §1

[17] = tested on: oat, wild (wild oat, Avena fatua); assay: as above; details: 10 days, 0 = no effect, 100 = complete control; for Oat, Wild plant response rating (0-100): 31 g ai/ha; for Oat, Wild plant response rating (0 to 100 scale): 125 g ai/ha
Outline: as §1

[18] = tested on: ryegrass, Italian (italian ryegrass, Lolium multiflorum); assay: as above; details: 10 days, 0 = no effect, 100 = complete control; for Ryegrass, Italian plant response rating (0-100): 31 g ai/ha; for Ryegrass, Italian plant response rating (0 to 100 scale): 125 g ai/ha
Outline: as §1

soybean (Glycine max) [19] = assay: as above; details: 10 days, 0 = no effect, 100 = complete control; for Soybean plant response rating (0-100): 31 g ai/ha; for Soybean plant response rating (0 to 100 scale): 125 g ai/ha
Outline: as §1

[20] = tested on: wheat (Triticum aestivum); assay: as above; details: 10 days, 0 = no effect, 100 = complete control; for Wheat plant response rating (0-100): 31 g ai/ha; for Wheat plant response rating (0 to 100 scale): 125 g ai/ha
Outline: as §1

kochia (Bassia scoparia) [21] = assay: as above; details: 10 days, 0 = no effect, 100 = complete control; for Kochia plant response rating (0-100): 31 g ai/ha; for Kochia plant response rating (0 to 100 scale): 125 g ai/ha
Outline: as §1

[22] = tested on: barnyardgrass (Echinochloa crus-galli); assay: as above; details: 10 days, 0 = no effect, 100 = complete control; for Barnyardgrass plant response rating (0-100): 31 g ai/ha; for Barnyardgrass plant response rating (0 to 100 scale): 125 g ai/ha
Outline: as §1

[23] = tested on: ducksalad (Heteranthera limosa); assay: Test B flooded paddy test, visual plant response rating 0-100; details: 250 g ai/ha, Flood, applied to paddy water, evaluated after 13 days
Outline: (§2)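 Greenhouse, 13 d. Seedlings at 2-leaf stage, pots flooded to 3 cm, compound delivered into floodwater, water level held constant. Evaluated visually relative to controls.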

[24] = tested on: sedge, umbrella (small-flower umbrella sedge, Cyperus difformis); assay: as above; details: 250 g ai/ha, Flood, applied to paddy water, evaluated after 13 days
Outline: as §2

[25] = tested on: barnyardgrass (Echinochloa crusgalli); assay: as above; details: 250 g ai/ha, Flood, applied to paddy water, evaluated after 13 days
Outline: as §2

rice (Oryza sativa) = assay: as above; details: 250 g ai/ha, Flood, applied to paddy water, evaluated after 13 days
Outline: as §2

[26] = 31 g ai/ha, greenhouse 10 days, 0 no effect, 100 complete control
[27] = 125 g ai/ha, 10 days, 0 is no effect, 100 is complete control

CC1(C(=O)NC2CC=C(C(=O)OCC(F)(F)F)C2)CN(c2cc(Cl)cc(Cl)c2)C(=O)O1 (stereo not drawn) [Compound 71]
Ragweed plant response rating (0 to 100 scale) [1, 26]: 60
Ragweed plant response rating (0 to 100 scale) [1, 27]: 60
Amaranth, Palmer / Pigweed, Palmer plant response rating (0 to 100 scale) [2, 26]: 90
Amaranth, Palmer / Pigweed, Palmer plant response rating (0 to 100 scale) [2, 27]: 90
Corn plant response rating (0 to 100 scale) (corn (Zea mays) [3]; [26]): 100
Corn plant response rating (0 to 100 scale) (corn (Zea mays) [3]; [27]): 100
Blackgrass plant response rating (0 to 100 scale) [4, 26]: 80
Blackgrass plant response rating (0 to 100 scale) [4, 27]: 90
Oat, Wild plant response rating (0 to 100 scale) [5, 26]: 40
Oat, Wild plant response rating (0 to 100 scale) [5, 27]: 90
Horseweed plant response rating (0 to 100 scale) [6, 26]: 10
Horseweed plant response rating (0 to 100 scale) [6, 27]: 70
Ryegrass, Italian plant response rating (0 to 100 scale) [7, 26]: 60
Ryegrass, Italian plant response rating (0 to 100 scale) [7, 27]: 70
Soybean plant response rating (0 to 100 scale) (soybean (Glycine max) [8]; [26]): 70
Soybean plant response rating (0 to 100 scale) (soybean (Glycine max) [8]; [27]): 90
Wheat plant response rating (0 to 100 scale) [9, 26]: 80
Wheat plant response rating (0 to 100 scale) [9, 27]: 90
Galium plant response rating (0 to 100 scale) [10, 26]: 80
Galium plant response rating (0 to 100 scale) [10, 27]: 80
Kochia plant response rating (0 to 100 scale) (kochia (Bassia scoparia) [11]; [26]): 80
Kochia plant response rating (0 to 100 scale) (kochia (Bassia scoparia) [11]; [27]): 90
Barnyardgrass plant response rating (0 to 100 scale) [12, 26]: 90
Barnyardgrass plant response rating (0 to 100 scale) [12, 27]: 90
Ragweed plant response rating (0-100) [13]: 0
Ragweed plant response rating (0 to 100 scale) [13]: 30
Amaranth, Palmer plant response rating (0-100) [14]: 90
Amaranth, Palmer plant response rating (0 to 100 scale) [14]: 100
Corn plant response rating (0-100) (corn (Zea mays) [15]): 30
Corn plant response rating (0 to 100 scale) (corn (Zea mays) [15]): 50
Blackgrass plant response rating (0-100) [16]: 0
Blackgrass plant response rating (0 to 100 scale) [16]: 50
Oat, Wild plant response rating (0-100) [17]: 20
Oat, Wild plant response rating (0 to 100 scale) [17]: 30
Ryegrass, Italian plant response rating (0-100) [18]: 40
Ryegrass, Italian plant response rating (0 to 100 scale) [18]: 70
Soybean plant response rating (0-100) (soybean (Glycine max) [19]): 10
Soybean plant response rating (0 to 100 scale) (soybean (Glycine max) [19]): 70
Wheat plant response rating (0-100) [20]: 60
Wheat plant response rating (0 to 100 scale) [20]: 90
Kochia plant response rating (0-100) (kochia (Bassia scoparia) [21]): 70
Kochia plant response rating (0 to 100 scale) (kochia (Bassia scoparia) [21]): 90
Barnyardgrass plant response rating (0-100) [22]: 50
Barnyardgrass plant response rating (0 to 100 scale) [22]: 90
Plant response rating, Ducksalad (0 to 100 scale, 0 is no effect and 100 is complete control) [23]: 70
Plant response rating, Sedge, Umbrella (0 to 100 scale, 0 is no effect and 100 is complete control) [24]: 100
Plant response rating, Barnyardgrass (0 to 100 scale, 0 is no effect and 100 is complete control) [25]: 80
Plant response rating, Rice (0 to 100 scale, 0 is no effect and 100 is complete control) (rice (Oryza sativa)): 85

CC1(C(=O)NC2CC=C(C(=O)O)C2)CN(c2cc(Cl)cc(Cl)c2)C(=O)O1 (stereo not drawn) [Compound 72]
Ragweed plant response rating (0 to 100 scale) [1, 26]: 50
Ragweed plant response rating (0 to 100 scale) [1, 27]: 70
Amaranth, Palmer / Pigweed, Palmer plant response rating (0 to 100 scale) [2, 26]: 90
Amaranth, Palmer / Pigweed, Palmer plant response rating (0 to 100 scale) [2, 27]: 90
Corn plant response rating (0 to 100 scale) (corn (Zea mays) [3]; [26]): 100
Corn plant response rating (0 to 100 scale) (corn (Zea mays) [3]; [27]): 100
Blackgrass plant response rating (0 to 100 scale) [4, 26]: 90
Blackgrass plant response rating (0 to 100 scale) [4, 27]: 90
Oat, Wild plant response rating (0 to 100 scale) [5, 26]: 40
Oat, Wild plant response rating (0 to 100 scale) [5, 27]: 60
Horseweed plant response rating (0 to 100 scale) [6, 26]: 70
Horseweed plant response rating (0 to 100 scale) [6, 27]: 80
Ryegrass, Italian plant response rating (0 to 100 scale) [7, 26]: 70
Ryegrass, Italian plant response rating (0 to 100 scale) [7, 27]: 70
Soybean plant response rating (0 to 100 scale) (soybean (Glycine max) [8]; [26]): 80
Soybean plant response rating (0 to 100 scale) (soybean (Glycine max) [8]; [27]): 90
Wheat plant response rating (0 to 100 scale) [9, 26]: 80
Wheat plant response rating (0 to 100 scale) [9, 27]: 90
Galium plant response rating (0 to 100 scale) [10, 26]: 80
Galium plant response rating (0 to 100 scale) [10, 27]: 80
Kochia plant response rating (0 to 100 scale) (kochia (Bassia scoparia) [11]; [26]): 80
Kochia plant response rating (0 to 100 scale) (kochia (Bassia scoparia) [11]; [27]): 80
Barnyardgrass plant response rating (0 to 100 scale) [12, 26]: 90
Barnyardgrass plant response rating (0 to 100 scale) [12, 27]: 90
Ragweed plant response rating (0-100) [13]: 0
Ragweed plant response rating (0 to 100 scale) [13]: 40
Amaranth, Palmer plant response rating (0-100) [14]: 90
Amaranth, Palmer plant response rating (0 to 100 scale) [14]: 100
Corn plant response rating (0-100) (corn (Zea mays) [15]): 0
Corn plant response rating (0 to 100 scale) (corn (Zea mays) [15]): 60
Blackgrass plant response rating (0-100) [16]: 0
Blackgrass plant response rating (0 to 100 scale) [16]: 30
Oat, Wild plant response rating (0-100) [17]: 10
Oat, Wild plant response rating (0 to 100 scale) [17]: 40
Ryegrass, Italian plant response rating (0-100) [18]: 40
Ryegrass, Italian plant response rating (0 to 100 scale) [18]: 80
Soybean plant response rating (0-100) (soybean (Glycine max) [19]): 0
Soybean plant response rating (0 to 100 scale) (soybean (Glycine max) [19]): 80
Wheat plant response rating (0-100) [20]: 40
Wheat plant response rating (0 to 100 scale) [20]: 80
Kochia plant response rating (0-100) (kochia (Bassia scoparia) [21]): 80
Kochia plant response rating (0 to 100 scale) (kochia (Bassia scoparia) [21]): 90
Barnyardgrass plant response rating (0-100) [22]: 60
Barnyardgrass plant response rating (0 to 100 scale) [22]: 90
Plant response rating, Ducksalad (0 to 100 scale, 0 is no effect and 100 is complete control) [23]: 75
Plant response rating, Sedge, Umbrella (0 to 100 scale, 0 is no effect and 100 is complete control) [24]: 98
Plant response rating, Barnyardgrass (0 to 100 scale, 0 is no effect and 100 is complete control) [25]: 55
Plant response rating, Rice (0 to 100 scale, 0 is no effect and 100 is complete control) (rice (Oryza sativa)): 85
